Laboratory results: patent publication US20090136578A1, “Pharmaceutical Composition Comprising Perindopril or Its Salts” (LEK Pharmaceutical d.d., priority 2005, published 2009)

Assays:
Type in all cases: physicochemical
[1] = Stress stability of binary mixture perindopril erbumine:Avicel 1:2, HPLC degradation products; settings: binary mixture with Avicel 1:2
Description: (§1) For the comparative tests, samples of perindopril erbumine with different particle size were mixed with some common pharmaceutically acceptable excipients in binary or ternary mixtures. Pharmaceutical compositions, particularly tablets, with perindopril erbumine having different particle size were prepared as well. Binary and ternary mixtures and tablets were exposed to the stress condition, e.g. 60° C. for 14 days or 40° C./75% relative humidity for 1 month. Degradation products of perindopril were determined using HPLC method as described in European Pharmacopea 5.0 (January 2005, monograph for Perindopril tert-butylamine—pages 2210-2212).
Samples of perindopril erbumine having large or small particles were mixed with microcrystalline cellulose (Avicel) into the binary mixtures having a ratio perindopril erbumine:Avicel=1:2. Binary mixtures were closed into vials and exposed to the stress condition of 60° C. for 14 days. Degradation products (impurities B and F) of perindopril were determined using HPLC method as described in European Pharmacopea 5.0 (p. 2210-2212).

[2] = Stress stability of binary mixture perindopril erbumine:anhydrous lactose 1:2, HPLC degradation products; settings: binary mixture with anhydrous lactose 1:2
Description: as §1
Samples of perindopril erbumine having large or small particles were mixed with anhydrous lactose into the binary mixtures having a ratio perindopril erbumine:anhydrous lactose=1:2. Binary mixtures were closed into vials and exposed to the stress condition of 60° C. for 14 days. Degradation products (impurities B and F) of perindopril were determined using HPLC method as described in European Pharmacopea 5.0 (p. 2210-2212).

[3] = Stress stability of binary mixture perindopril erbumine:Aerosil 15:1, HPLC degradation products; settings: binary mixture with Aerosil 15:1
Description: (§2) For the comparative tests, samples of perindopril erbumine with different particle size were mixed with some common pharmaceutically acceptable excipients in binary or ternary mixtures. Pharmaceutical compositions, particularly tablets, with perindopril erbumine having different particle size were prepared as well. Binary and ternary mixtures and tablets were exposed to the stress condition, e.g. 60° C. for 14 days or 40° C./75% relative humidity for 1 month.
Samples of perindopril erbumine having large or small particles were mixed with colloidal anhydrous silicon dioxide (Aerosil) into the binary mixtures having a ratio perindopril erbumine:Aerosil=15:1. Binary mixtures were closed into vials and exposed to the stress condition of 60° C. for 14 days.

[4] = Stress stability of ternary mixture perindopril erbumine:Avicel:Syloid 2:10:1, HPLC degradation products; settings: ternary mixture with Avicel and Syloid 2:10:1
Description: as §2
Samples of perindopril erbumine having large or small particles were mixed with microcrystalline cellulose (Avicel) and micronized silicon dioxide (Syloid) into the ternary mixtures having ratio perindopril erbumine:Avicel:Syloid=2:10:1. Ternary mixtures were exposed to the stress condition of 40° C./75% relative humidity for 1 month.

[5] = Stress stability of ternary mixture perindopril erbumine:anhydrous lactose:Syloid 2:10:1, HPLC degradation products; settings: ternary mixture with anhydrous lactose and Syloid 2:10:1
Description: as §2
Samples of perindopril erbumine having large or small particles were mixed with anhydrous lactose and micronized silicon dioxide (Syloid) into the ternary mixtures having ratio perindopril erbumine:anhydrous lactose:Syloid=2:10:1. Ternary mixtures were exposed to the stress condition of 40° C./75% relative humidity for 1 month.

[6] = Stress stability of tablets of Example 6, HPLC degradation products
Description: as §2
Samples of perindopril erbumine having large or small particles were mixed with selected pharmaceutical excipients in stated ratio:
Mixture was homogenized and pressed into the tablets. The amount of the perindopril erbumine in the tablets was defined by the mass of the tablet. Tablet could contain 2, 4 or 8 mg of perindopril erbumine.
Tablets were exposed to the stress condition of 60° C. for 14 days and 40° C./75% relative humidity for 1 month.

[7] = Comparative stress tests of perindopril erbumine of different particle size with excipients; settings: in comparison to perindopril erbumine having small particles; regardless of excipients or testing conditions
Description: During the development of the stable pharmaceutical composition of perindopril erbumine comparative tests were performed to investigate effects of various pharmaceutically acceptable excipients e.g. fillers, disintegrants and glidants, and different particle size of perindopril erbumine on the stability of perindopril erbumine.
as §2

Structure (SMILES)	impurity B ([1]; 60° C., 14 days)	impurity F ([1]; 60° C., 14 days)	sum of impurities ([1]; 60° C., 14 days)	impurity B ([1]; beginning)	impurity F ([1]; beginning)	sum of impurities ([1]; beginning)	impurity B ([2]; 60° C., 14 days)	impurity F ([2]; 60° C., 14 days)	sum of impurities ([2]; 60° C., 14 days)	impurity B ([2]; beginning)	impurity F ([2]; beginning)	sum of impurities ([2]; beginning)	impurity B ([3]; 60° C., 14 days)	impurity F ([3]; 60° C., 14 days)	sum of impurities ([3]; 60° C., 14 days)	impurity B ([3]; beginning)	impurity F ([3]; beginning)	sum of impurities ([3]; beginning)	impurity B ([4]; 40° C./75% RH, 1 month)	impurity F ([4]; 40° C./75% RH, 1 month)	further results
CCC[C@H](N[C@@H](C)C(=O)N1[C@H](C(=O)O)C[C@@H]2CCCC[C@@H]21)C(=O)OCC [perindopril erbumine - large particles, perindopril erbumine]	<0.05%	0.07%	0.07%	<0.05%	<0.05%	<0.05%	<0.05%	0.13%	0.13%	<0.05%	<0.05%	<0.05%	<0.05%	0.08%	0.08%	<0.05%	<0.05%	<0.05%	0.05%	0.18%	sum of impurities ([4]; 40° C./75% RH, 1 month): 0.29%; impurity B ([4]; beginning): <0.05%; impurity F ([4]; beginning): <0.05%; sum of impurities ([4]; beginning): 0.11%; impurity B ([5]; 40° C./75% RH, 1 month): 1.09%; impurity F ([5]; 40° C./75% RH, 1 month): 0.70%; sum of impurities ([5]; 40° C./75% RH, 1 month): 1.92%; impurity B ([5]; beginning): <0.05%; impurity F ([5]; beginning): <0.05%; sum of impurities ([5]; beginning): 0.10%; impurity B ([6]; 40° C./75% RH, 1 month): 0.13%; impurity F ([6]; 40° C./75% RH, 1 month): 0.28%; sum of impurities ([6]; 40° C./75% RH, 1 month): 0.41%; impurity B ([6]; 60° C., 14 days): 0.56%; impurity F ([6]; 60° C., 14 days): 0.63%; sum of impurities ([6]; 60° C., 14 days): 1.40%; impurity B ([6]; beginning): <0.05%; impurity F ([6]; beginning): 0.07%; sum of impurities ([6]; beginning): 0.07%; degradation of perindopril erbumine [7]: smaller
CCC[C@H](N[C@@H](C)C(=O)N1[C@H](C(=O)O)C[C@@H]2CCCC[C@@H]21)C(=O)OCC [perindopril erbumine - small particles, perindopril erbumine]	<0.05%	0.74%	0.81%	<0.05%	<0.05%	<0.05%	<0.05%	0.77%	0.88%	<0.05%	<0.05%	<0.05%	<0.05%	0.80%	0.80%	<0.05%	<0.05%	<0.05%	0.14%	0.17%	sum of impurities ([4]; 40° C./75% RH, 1 month): 0.36%; impurity B ([4]; beginning): <0.05%; impurity F ([4]; beginning): <0.05%; sum of impurities ([4]; beginning): 0.11%; impurity B ([5]; 40° C./75% RH, 1 month): 1.24%; impurity F ([5]; 40° C./75% RH, 1 month): 1.35%; sum of impurities ([5]; 40° C./75% RH, 1 month): 2.75%; impurity B ([5]; beginning): <0.05%; impurity F ([5]; beginning): <0.05%; sum of impurities ([5]; beginning): 0.10%; impurity B ([6]; 40° C./75% RH, 1 month): 0.09%; impurity F ([6]; 40° C./75% RH, 1 month): 0.51%; sum of impurities ([6]; 40° C./75% RH, 1 month): 0.65%; impurity B ([6]; 60° C., 14 days): 0.27%; impurity F ([6]; 60° C., 14 days): 0.96%; sum of impurities ([6]; 60° C., 14 days): 1.79%; impurity B ([6]; beginning): <0.05%; impurity F ([6]; beginning): <0.05%; sum of impurities ([6]; beginning): 0.05%
